The text below walks through data of US20120115827A1, “3-AMINOBENZAMIDE COMPOUNDS AND VANILLOID RECEPTOR SUBTYPE 1 (VR1) INHIBITORS” (Japan Tobacco Inc., priority 2004, published 2012).

Where a name gives a salt, the structure may show the parent alone.

The assay deals with T1, human VR1 (Homo sapiens, UniProt Q8NER1).
T1 construct: expressed in transfected cells
T1 sequence (Q8NER1 whole entry): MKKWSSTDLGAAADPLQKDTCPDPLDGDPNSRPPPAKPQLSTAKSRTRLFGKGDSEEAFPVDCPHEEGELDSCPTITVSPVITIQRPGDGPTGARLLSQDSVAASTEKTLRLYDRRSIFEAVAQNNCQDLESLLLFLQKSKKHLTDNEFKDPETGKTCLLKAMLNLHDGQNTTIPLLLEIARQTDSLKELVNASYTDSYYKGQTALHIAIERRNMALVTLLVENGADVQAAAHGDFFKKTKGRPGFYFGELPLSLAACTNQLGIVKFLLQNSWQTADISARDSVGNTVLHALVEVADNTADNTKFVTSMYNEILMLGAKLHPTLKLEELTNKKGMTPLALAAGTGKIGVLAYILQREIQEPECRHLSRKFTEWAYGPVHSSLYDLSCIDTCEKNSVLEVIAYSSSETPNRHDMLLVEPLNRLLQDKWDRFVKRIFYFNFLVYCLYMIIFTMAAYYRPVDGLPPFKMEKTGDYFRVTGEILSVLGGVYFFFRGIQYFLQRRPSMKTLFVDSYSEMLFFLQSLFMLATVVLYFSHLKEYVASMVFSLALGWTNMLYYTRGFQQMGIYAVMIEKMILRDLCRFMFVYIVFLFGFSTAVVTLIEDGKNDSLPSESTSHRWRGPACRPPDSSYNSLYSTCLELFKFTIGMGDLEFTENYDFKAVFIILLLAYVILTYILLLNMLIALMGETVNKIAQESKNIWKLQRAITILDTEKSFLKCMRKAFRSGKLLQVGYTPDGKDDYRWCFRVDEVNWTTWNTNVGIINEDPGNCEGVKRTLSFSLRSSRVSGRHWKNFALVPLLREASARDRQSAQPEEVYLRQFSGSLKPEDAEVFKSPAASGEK
The assay is described as follows: Inhibition of Ca2+ entry in cells caused by proton (VR1 agonist). The class given is cell-based. Particulars: Rat glioma (C6BU1) cells stably expressing human VR1; proton stimulation to pH 5.5; Fura 2-AM fluorescence; read-out: In vitro IC50. As to the method: The assay for evaluation of VR1 inhibition by the inventive compounds will be described below. The assay was intended to evaluate in vitro inhibition of Ca^2+ entry in cells caused by proton, one of the VR1 agonists.
Rat glioma (C6BU1) cells stably expressing human VR1 were suspended in 20 mM MES buffer (at pH 6.8, contg. 20 mM 2-morpholinoethanesulfonate (referred to as MES hereinafter), 115 mM NaCl, 5 mM KCl, 1 mM MgCl2 and 14 mM D-glucose) to make a cell density of 1×10^6 cells/mL. A fluorescent dye, Fura 2-AM solution (Dojindo Corporate, Cat. No. 343-05401) was added to the suspension to make a 5 μM concentration thereof. Further, Pluronic F-127 (Wako Pure Chemical Industries, Ltd., Cat. No. P6866) was added to make a 0.1% content thereof. Then, the suspension was incubated at 37° C. for 30 min. The cells were harvested and washed three times with 20 mM MES buffer. The cells were suspended again to make a cell density of 5×10^5 cells/mL. A 500-μL portion of the suspension was taken with a cuvette (MC MEDICAL, INC., Cat. No. SSR3121), to which […] MES buffer containing 250 mM CaCl2 was added to incorporate Ca^2+ into the cells. At the same time, 5 μL of a test compound solution (in a range of 100 μM to 10 nM in DMSO) was also added to provide a final concentration thereof in a range of 1 μM to 0.1 nM. Alternatively, 5 μl of DMSO was added as control to provide a final concentration of 1% DMSO. The suspension was set in an intracellular ionometer (CAF-110; JASCO) 10 min after those additions. The cells were stimulated with protons by addition of 60 μL of 20 mM MES buffer at pH 1.1 to the suspension to set its pH at 5.5. The activity of the test compound was determined as a difference between the minimum of fluorescence intensity before agonist stimulation and its maximum after the stimulation. The value of IC50 was derived from percentage of inhibition by the test compound compared with the control.
As for `CN(c1cccc(C(=O)Nc2ccc(C(C)(C)C)cc2)c1)c1ncccc1Cl` [Example 1, N-(4-tert-butylphenyl)-3-[N-(3-chloropyridin-2-yl)-N-methyl-amino]benzamide, hydrochloride salt], the IC50 was ≤ 100 nM.

Turning to `CN(c1cccc(C(=O)Nc2ccc(C(C)(C)C)cc2)c1)c1ccccn1` [Example 2, N-(4-tert-butylphenyl)-3-[N-(pyridin-2-yl)-N-methyl-amino]benzamide, hydrochloride salt], the IC50 lay in the range of 100 to 1000 nM.

As for `CCN(c1cccc(C(=O)Nc2ccc(C(C)(C)C)cc2)c1)c1ncccc1Cl` [Example 3, N-(4-tert-butylphenyl)-3-[N-(3-chloropyridin-2-yl)-N-ethyl-amino]benzamide], the IC50 is ≤ 100 nM.

As for `COc1ccc(C(=O)Nc2ccc(C(C)(C)C)cc2)cc1N(C)c1ncccc1Cl` [Example 4, N-(4-tert-butylphenyl)-3-[N-(3-chloropyridin-2-yl)-N-methyl]amino-4-methoxybenzamide], the IC50 was ≤ 100 nM.

In the case of `CN(c1cc(C(=O)Nc2ccc(C(C)(C)C)cc2)ccc1Oc1ccccc1)c1ncccc1Cl` [Example 5, N-(4-tert-butylphenyl)-3-[N-(3-chloropyridin-2-yl)-N-methyl]amino-4-phenoxybenzamide], the IC50 is ≤ 100 nM.

As to `Cc1c(C(=O)Nc2ccc(C(C)(C)C)cc2)cccc1N(C)c1ncccc1Cl` [Example 6, N-(4-tert-butylphenyl)-3-[N-(3-chloropyridin-2-yl)-N-methyl-amino]-2-methylbenzamide], the half-maximal inhibitory concentration (IC50) is ≤ 100 nM.

`Cc1ccc(C(=O)Nc2ccc(C(C)(C)C)cc2)cc1N(C)c1ncccc1Cl` [Example 7, N-(4-tert-butylphenyl)-3-[N-(3-chloropyridin-2-yl)-N-methyl-amino]-4-methylbenzamide]: the IC50 was ≤ 100 nM.

For the compound `CN(c1cc(C(=O)Nc2ccc(C(C)(C)C)cc2)ccc1-c1ccccc1)c1ncccc1Cl` [Example 8, N-(4-tert-butylphenyl)-3-[N-(3-chloropyridin-2-yl)-N-methyl-amino]-4-phenylbenzamide], the IC50 was ≤ 100 nM.

In the case of `CN(c1cc(C(=O)Nc2ccc(C(C)(C)C)cc2)ccc1F)c1ncccc1Cl` [Example 9, N-(4-tert-butylphenyl)-3-[N-(3-chloropyridin-2-yl)-N-methyl-amino]-4-fluorobenzamide], the IC50 is ≤ 100 nM.

On to `CCN(c1cc(C(=O)Nc2ccc(C(C)(C)C)cc2)ccc1OC)c1ncccc1Cl` [Example 10, N-(4-tert-butylphenyl)-3-[N-(3-chloropyridin-2-yl)-N-ethyl]amino-4-methoxybenzamide], for which the IC50 was ≤ 100 nM.

For the compound `COc1ccc(C(=O)Nc2ccc(C(C)(C)C)cc2)cc1N(c1ncccc1Cl)C(C)C` [Example 11, N-(4-tert-butylphenyl)-3-[N-(3-chloropyridin-2-yl)-N-isopropyl]amino-4-methoxybenzamide], the IC50 is ≤ 100 nM.

`CN(c1cc(C(=O)Nc2ccc(C(C)(C)C)cc2)ccc1Cl)c1ncccc1Cl` [Example 12, N-(4-tert-butylphenyl)-4-chloro-3-[N-(3-chloropyridin-2-yl)-N-methyl-amino]benzamide]: the IC50 is ≤ 100 nM.

For `CN(c1ccccn1)c1cc(C(=O)Nc2ccc(C(C)(C)C)cc2)ccc1Cl` [Example 13, N-(4-tert-butylphenyl)-4-chloro-3-[N-(pyridin-2-yl)-N-methyl-amino]benzamide], the IC50 was in the range of 100 to 1000 nM.

Consider `COCOc1ccc(C(=O)Nc2ccc(C(C)(C)C)cc2)cc1N(C)c1ncccc1Cl` [Example 14, N-(4-tert-butylphenyl)-3-[N-(3-chloropyridin-2-yl)-N-methyl-amino]-4-methoxymethyloxybenzamide], for which the IC50 is ≤ 100 nM.

Regarding `CN(c1cc(C(=O)Nc2ccc(C(C)(C)C)cc2)ccc1O)c1ncccc1Cl` [Example 15, N-(4-tert-butylphenyl)-3-[N-(3-chloropyridin-2-yl)-N-methyl-amino]-4-hydroxybenzamide], the IC50 is ≤ 100 nM.

As to `CC(C)Oc1ccc(C(=O)Nc2ccc(C(C)(C)C)cc2)cc1N(C)c1ncccc1Cl` [Example 16, N-(4-tert-butylphenyl)-3-[N-(3-chloropyridin-2-yl)-N-methyl-amino]-4-isopropoxybenzamide], the IC50 is ≤ 100 nM.

With `CN1c2cc(C(=O)Nc3ccc(C(C)(C)C)cc3)ccc2Oc2cccnc21` [Example 17, N-(4-tert-butylphenyl)-10-methyl-10H-benzo[b]pyrido[2,3-e][1,4]oxazine-8-carboxamide], the 50% inhibitory concentration (IC50) was ≤ 100 nM.

On to `CN(c1cc(C(=O)Nc2ccc(C(C)(C)C)cc2)ccc1OCCO)c1ncccc1Cl` [Example 18, N-(4-tert-butylphenyl)-3-[N-(3-chloropyridin-2-yl)-N-methyl-amino]-4-(2-hydroxyethyl)oxybenzamide], for which the IC50 was ≤ 100 nM.

Consider `CN(c1cc(C(=O)Nc2ccc(C(C)(C)C)cc2)ccc1OCC(N)=O)c1ncccc1Cl` [Example 20, N-(4-tert-butylphenyl)-4-carbamoylmethyloxy-3-[N-(3-chloropyridin-2-yl)-N-methyl-amino]benzamide], for which the IC50 is ≤ 100 nM.

On to `CNC(=O)COc1ccc(C(=O)Nc2ccc(C(C)(C)C)cc2)cc1N(C)c1ncccc1Cl` [Example 21, N-(4-tert-butylphenyl)-3-[N-(3-chloropyridin-2-yl)-N-methyl-amino]-4-(N-methylcarbamoylmethyl)oxybenzamide], for which the IC50 is ≤ 100 nM.

`CN(C)C(=O)COc1ccc(C(=O)Nc2ccc(C(C)(C)C)cc2)cc1N(C)c1ncccc1Cl` [Example 22, N-(4-tert-butylphenyl)-3-[N-(3-chloropyridin-2-yl)-N-methyl-amino]-4-(N,N-dimethylcarbamoylmethyl)oxybenzamide]: the IC50 was 100 to 1000 nM.

`CN(c1cc(Cl)cc(C(=O)Nc2ccc(C(C)(C)C)cc2)c1)c1ncccc1Cl` [Example 23, N-(4-tert-butylphenyl)-5-chloro-3-[N-(3-chloropyridin-2-yl)-N-methyl]aminobenzamide]: the IC50 was ≤ 100 nM.

Turning to `CN(c1ccc(Cl)c(C(=O)Nc2ccc(C(C)(C)C)cc2)c1)c1ncccc1Cl` [Example 24, N-(4-tert-butylphenyl)-2-chloro-5-[N-(3-chloropyridin-2-yl)-N-methyl]aminobenzamide], the IC50 lay in the range of 100 to 1000 nM.

As to `CN(c1cccc(C(=O)Nc2ccc(C(C)(C)C)cc2)c1O)c1ncccc1Cl` [Example 25, N-(4-tert-butylphenyl)-3-[N-(3-chloropyridin-2-yl)-N-methyl]amino-2-hydroxybenzamide], the IC50 was in the range of 100 to 1000 nM.

In the case of `COc1c(C(=O)Nc2ccc(C(C)(C)C)cc2)cccc1N(C)c1ncccc1Cl` [Example 26, N-(4-tert-butylphenyl)-3-[N-(3-chloropyridin-2-yl)-N-methyl]amino-2-methoxybenzamide], the IC50 is ≤ 100 nM.

With `CN(c1cccc(C(=O)Nc2ccc(C(C)(C)C)cc2)c1OCCO)c1ncccc1Cl` [Example 27, N-(4-tert-butylphenyl)-3-[N-(3-chloropyridin-2-yl)-N-methyl-amino]-2-(2-hydroxyethyl)oxybenzamide], the IC50 is ≤ 100 nM.

Take `COc1ccc(C(=O)Nc2ccc(C(C)(C)C)cc2)cc1N(CCO)c1ncccc1Cl` [Example 28, N-(4-tert-butylphenyl)-3-[N-(3-chloropyridin-2-yl)-N-(2-hydroxyethyl)]amino-4-methoxybenzamide]: the concentration for half-maximal inhibition (IC50) is ≤ 100 nM.

With `COCCN(c1cc(C(=O)Nc2ccc(C(C)(C)C)cc2)ccc1Cl)c1ncccc1Cl` [Example 29, N-(4-tert-butylphenyl)-4-chloro-3-[N-(3-chloropyridin-2-yl)-N-(2-methoxyethyl)amino]benzamide], the IC50 was ≤ 100 nM.

Consider `CC(C)(C)c1ccc(NC(=O)c2ccc(Cl)c(N(CCO)c3ncccc3Cl)c2)cc1` [Example 30, N-(4-tert-butylphenyl)-4-chloro-3-[N-(3-chloropyridin-2-yl)-N-(2-hydroxyethyl)amino]benzamide], for which the IC50 is ≤ 100 nM.

As for `O=C(Nc1ccc(C(F)(F)F)cc1)c1ccc(Cl)c(N(CCO)c2ncccc2Cl)c1` [Example 31, 4-chloro-3-[N-(3-chloropyridin-2-yl)-N-(2-hydroxyethyl)amino]-N-(4-trifluoromethylphenyl)-benzamide, hydrochloride salt], the IC50 was ≤ 100 nM.

Consider `O=C(Nc1ccc(OC(F)(F)F)cc1)c1ccc(Cl)c(N(CCO)c2ncccc2Cl)c1` [Example 32, 4-chloro-3-[N-(3-chloropyridin-2-yl)-N-(2-hydroxyethyl)amino]-N-(4-trifluoromethoxyphenyl)benzamide, hydrochloride salt], for which the concentration for half-maximal inhibition (IC50) was ≤ 100 nM.

In the case of `CN(c1cccc(C(=O)Nc2ccc(C(C)(C)C)cc2)c1)c1ccccc1Cl` [Example 33, N-(4-tert-butylphenyl)-3-[N-(2-chlorophenyl)-N-methyl-amino]benzamide], the IC50 was ≤ 100 nM.
